biological target: T1, CDK2 (Homo sapiens, UniProt P24941); assay: Inhibition of CDK2: phospho-Rb (S807/811) HTRF measurement in OVCAR3 cells, 24 h; assay type: cell-based; settings: 24 h compound treatment, read-out: pRB_OVCAR3_24h
T1 construct: High-Throughput Measurement of Cellular Endogenous CDK2; endogenous in cells; host or cells: OVCAR3
Procedure, shortened: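 OVCAR3 cells, seeded overnight, were exposed to compounds at 0.3 to 10,000 nM for 24 h, then lysed. Rb S807/811 phosphorylation read by HTRF (665/620 nm ratio) after 4 h detection at room temperature; data normalized to DMSO and IC50 from four-parameter logistic fit.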

With `Cn1nc(N2CCC(=O)NC2=O)c2ccc(C3CCN(Cc4cccc(S(=O)(=O)[C@H]5CC[C@H](Nc6ncc(C(F)(F)F)cn6)CC5)c4)CC3)cc21` [Example 10, 1-(1-methyl-6-(1-(3-(((1r,4r)-4-((5-(trifluoromethyl)pyrimidin-2-yl)amino)-cyclohexyl)sulfonyl)benzyl)piperidin-4-yl)-1H-indazol-3-yl)dihydropyrimidine-2,4(1H,3H)-dione] as the molecule, how does the IC50 read?
The IC50 was 500 to 2500 nM.

With `Cn1nc(N2CCC(=O)NC2=O)c2ccc(C3CCN(CC4CCN(c5ccc(C#N)c(S(=O)(=O)N6CCC(Nc7ncc(Cl)cn7)CC6)c5)CC4)CC3)cc21` [Example 161, 2-((4-((5-chloropyrimidin-2-yl)amino)piperidin-1-yl)sulfonyl)-4-(4-((4-(3-(2,4-dioxotetrahydropyrimidin-1(2H)-yl)-1-methyl-1H-indazol-6-yl)piperidin-1-yl)methyl)piperidin-1-yl)benzonitrile] as the molecule, how does the IC50 read?
Its IC50 is over 2500 nM.

With `Cn1nc(N2CCC(=O)NC2=O)c2ccc(N3CC4CCC(C3)N4CC3CCN(c4cccc(S(=O)(=O)N5CCC(Nc6ncc(Cl)cn6)CC5)c4)CC3)cc21` [Example 114, 1-(6-(8-((1-(3-((4-((5-chloropyrimidin-2-yl)amino)piperidin-1-yl)sulfonyl)phenyl)-piperidin-4-yl)methyl)-3,8-diaza-bicyclo[3.2.1]octan-3-yl)-1-methyl-1H-indazol-3-yl)dihydropyrimidine-2,4(1H,3H)-dione] as the molecule, how does the IC50 read?
The IC50 was 100 to 500 nM.

With `CO[C@@H]1CN(S(=O)(=O)c2cccc(N3CCC(CN4CCC(c5ccc6c(N7CCC(=O)NC7=O)nn(C)c6c5)CC4)CC3)c2)CC[C@@H]1Nc1ncc(Cl)cn1` [Example 218, 1-(6-(1-((1-(3-(((3R,4S)-4-((5-chloropyrimidin-2-yl)amino)-3-methoxypiperidin-1-yl)sulfonyl)phenyl)piperidin-4-yl)methyl)piperidin-4-yl)-1-methyl-1H-indazol-3-yl)dihydropyrimidine-2,4(1H,3H)-dione] as the molecule, how does the IC50 read?
The IC50 was over 2500 nM.

`Cn1nc(N2CCC(=O)NC2=O)c2ccc(C3CCN(Cc4ccc(C#Cc5cccc(S(=O)(=O)N6CCC(Nc7ncc(C(F)(F)F)cn7)CC6)c5)cc4)CC3)cc21` [Example 232, 1-(1-methyl-6-(1-(4-((3-((4-((5-(trifluoromethyl)pyrimidin-2-yl)amino)piperidin-1-yl)sulfonyl)phenyl)ethynyl)benzyl)piperidin-4-yl)-1H-indazol-3-yl)dihydropyrimidine-2,4(1H,3H)-dione] was tested. Which IC50 did it give?
Its IC50 is 100 to 500 nM.

How did the IC50 turn out when `Cn1nc(N2CCC(=O)NC2=O)c2ccc(C3CCN(Cc4cccc(C#Cc5cccc(S(=O)(=O)N6CCC(Nc7ncc(C(F)(F)F)cn7)CC6)c5)c4)CC3)cc21` [Example 233] was run?
Its IC50 is 100 to 500 nM.

For `O=C1CCC(N2C(=O)c3cc(F)c(N4CCN(CC5CCN(c6cccc(S(=O)(=O)N7CCC(Nc8ncc(C(F)(F)F)cn8)CC7)c6)CC5)CC4)cc3C2=O)C(=O)N1` (stereo not drawn) [Example 80, 2-(2,6-dioxopiperidin-3-yl)-5-fluoro-6-(4-((1-(3-((4-((5-(trifluoromethyl)pyrimidin-2-yl)amino)piperidin-1-yl)sulfonyl)phenyl)-piperidin-4-yl)methyl)piperazin-1-yl)isoindoline-1,3-dione], which IC50 is on record?
Its IC50 is 100 to 500 nM.

`Cn1nc(N2CCC(=O)NC2=O)c2ccc(C3CCN(C(c4cccc(S(=O)(=O)N5CCC(Nc6ncc(Cl)cn6)CC5)c4)C(F)F)CC3)cc21` (stereo not drawn) [Example 30, 1-(6-(1-(1-(3-((4-((5-chloropyrimidin-2-yl)amino)piperidin-1-yl)sulfonyl)phenyl)-2,2-difluoroethyl)piperidin-4-yl)-1-methyl-1H-indazol-3-yl)dihydropyrimidine-2,4(1H,3H)-dione] was tested. Which IC50 did it give?
The IC50 was 500 to 2500 nM.

With `O=C1CCC(N2Cc3cc(N4CCC(N5CC(Oc6cccc(S(=O)(=O)N7CCC(Nc8ncc(C(F)(F)F)cn8)CC7)c6)C5)CC4)ccc3C2=O)C(=O)N1` (stereo not drawn) [Example 45, 3-(1-ox0-5-(4-(3-(3-((4-((5-(trifluoro-methyl)pyrimidin-2-yl)amino)piperidin-1-yl)sulfonyl)phenoxy)azetidin-1-yl)piperidin-1-yl)isoindolin-2-yl)piperidine-2,6-dione] as the molecule, how does the IC50 read?
The IC50 was 100 to 500 nM.

Which IC50 does the source give for `Cn1nc(N2CCC(=O)NC2=O)c2ccc(C3CCN(C[C@@H]4CCCN4c4cc(S(=O)(=O)N5CCC(Nc6ncc(OC(F)F)cn6)CC5)ccc4C#N)CC3)cc21` [Example 256, (S)-4-((4-((5-(difluoromethoxy)pyrimidin-2-yl)amino)piperidin-1-yl)sulfonyl)-2-(2-((4-(3-(2,4-dioxotetrahydropyrimidin-1(2H)-yl)-1-methyl-1H-indazol-6-yl)piperidin-1-yl)methyl)pyrrolidin-1-yl)benzonitrile] here?
The IC50 was 100 to 500 nM.

How did the IC50 turn out when `Cn1nc(N2CCC(=O)NC2=O)c2ccc(CCCN3CCN(c4cccc(S(=O)(=O)N5CCC(Nc6ncc(C(F)(F)F)cn6)CC5)c4)CC3)cc21` [Example 235, 1-(1-methyl-6-(3-(4-(3-((4-((5-(trifluoromethyl)pyrimidin-2-yl)amino)piperidin-1-yl)sulfonyl)phenyl)piperazin-1-yl)propyl)-1H-indazol-3-yl)dihydropyrimidine-2,4(1H,3H)-dione] was run?
Its IC50 is 100 to 500 nM.

For `Cn1c(=O)n(C2CCC(=O)NC2=O)c2cccc(C3CCN(CC4CCN(c5cccc(S(=O)(=O)N6CCC(Nc7ncc(OC(F)F)cn7)CC6)c5)CC4)CC3)c21` (stereo not drawn) [Example 121, 3-(4-(1-((1-(3-((4-((5-(difluoromethoxy)-pyrimidin-2-yl)amino)piperidin-1-yl)sulfonyl)phenyl)piperidin-4-yl)methyl)-piperidin-4-yl)-3-methyl-2-oxo-2,3-dihydro-1H-benzo[d]imidazol-1-yl)piperidine-2,6-dione], which IC50 is on record?
Its IC50 is 1 to 100 nM.

Which IC50 does the source give for `Cn1nc(N2CCC(=O)NC2=O)c2ccc(C3CCN(CCOc4cccc(S(=O)(=O)N5CCC(Nc6ncc(Cl)cn6)CC5)c4)CC3)cc21` [Example 124, 1-(6-(1-(2-(3-((4-((5-chloropyrimidin-2-yl)amino)piperidin-1-yl)sulfonyl)phenoxy)-ethyl)piperidin-4-yl)-1-methyl-1H-indazol-3-yl)dihydropyrimidine-2,4(1H,3H)-dione] here?
The IC50 was 1 to 100 nM.

`Cn1nc(N2CCC(=O)NC2=O)c2ccc(N3CC4CC(C3)N4CC3CCN(c4cccc(S(=O)(=O)N5CCC(Nc6ncc(Cl)cn6)CC5)c4)CC3)cc21` [Example 125, 1-(6-(6-((1-(3-((4-((5-chloropyrimidin-2-yl)amino)piperidin-1-yl)sulfonyl)phenyl)-piperidin-4-yl)methyl)-3,6-diazabicyclo-[3.1.1]heptan-3-yl)-1-methyl-1H-indazol-3-yl)dihydropyrimidine-2,4(1H,3H)-dione] was tested. Which IC50 did it give?
The IC50 was 500 to 2500 nM.

Which IC50 does the source give for `Cn1nc(N2CCC(=O)NC2=O)c2ccc(C3CCN(C[C@H]4CCCN(c5cccc(S(=O)(=O)N6CCC(Nc7ncc(OC(F)F)cn7)CC6)c5)C4)CC3)cc21` [Example 258, (R)-1-(6-(1-((1-(3-((4-((5-(difluoromethoxy)pyrimidin-2-yl)amino)piperidin-1-yl)sulfonyl)phenyl)piperidin-3-yl)methyl)piperidin-4-yl)-1-methyl-1H-indazol-3-yl)dihydropyrimidine-2,4(1H,3H)-dione] here?
Its IC50 is 100 to 500 nM.

With `Cn1nc(N2CCC(=O)NC2=O)c2ccc(C3CCN(CCOc4cccc(S(=O)(=O)N5CCC(Nc6ncc(C(F)(F)F)cn6)CC5)c4)CC3)cc21` [Example 123, 1-(1-methyl-6-(1-(2-(3-((4-((5-(trifluoro-methyl)pyrimidin-2-yl)amino)piperidin-1-yl)sulfonyl)phenoxy)ethyl)piperidin-4-yl)-1H-indazol-3-yl)dihydropyrimidine-2,4(1H,3H)-dione] as the molecule, how does the IC50 read?
Its IC50 is 1 to 100 nM.

`Cn1nc(N2CCC(=O)NC2=O)c2ccc(C3CCN(CC4CCC(c5cccc(S(=O)(=O)N6CCC(Nc7ncc(Cl)cn7)CC6)c5)CC4)CC3)cc21` (stereo not drawn) [Example 156, 1-(6-(1-((4-(3-((4-((5-chloropyrimidin-2-yl)amino)piperidin-1-yl)sulfonyl)phenyl)cyclohexyl)methyl)piperidin-4-yl)-1-methyl-1H-indazol-3-yl)dihydropyrimidine-2,4(1H,3H)-dione 2,2,2-trifluoroacetate] was tested. Which IC50 did it give?
Its IC50 is 100 to 500 nM.

`O=C1CCC(NC(=O)c2ccc(C3CCN(CC4CCN(c5cccc(S(=O)(=O)N6CCC(Nc7ncc(Cl)cn7)CC6)c5)CC4)CC3)cc2F)C(=O)N1` (stereo not drawn) [Example 237, 4-(1-((1-(3-((4-((5-chloropyrimidin-2-yl)amino)piperidin-1-yl)sulfonyl)phenyl)piperidin-4-yl)methyl)piperidin-4-yl)-N-(2,6-dioxopiperidin-3-yl)-2-fluorobenzamide] was tested. Which IC50 did it give?
Its IC50 is 500 to 2500 nM.

`Cn1nc(N2CCC(=O)NC2=O)c2ccc(C3CCN(Cc4ccc(C5CCCN(S(=O)(=O)N6CCC(Nc7ncc(Cl)cn7)CC6)C5)cc4)CC3)cc21` (stereo not drawn) [Example 157, 1-(6-(1-(4-(1-((4-((5-chloropyrimidin-2-yl)amino)piperidin-1-yl)sulfonyl)piperidin-3-yl)benzyl)piperidin-4-yl)-1-methyl-1H-indazol-3-yl)dihydropyrimidine-2,4(1H,3H)-dione] was tested. Which IC50 did it give?
Its IC50 is 500 to 2500 nM.

For `Cn1nc(N2CCC(=O)NC2=O)c2ccc(C3CCN(CC4CCN(c5cccc(S(=O)(=O)N6CCC(Nc7ncc(OC(F)F)cn7)CC6)c5)CC4)CC3)cc21` [Example 112, 1-(6-(1-((1-(3-((4-((5-(difluoromethoxy)-pyrimidin-2-yl)amino)piperidin-1-yl)sulfonyl)phenyl)piperidin-4-yl)methyl)piperidin-4-yl)-1-methyl-1H-indazol-3-yl)dihydropyrimidine-2,4(1H,3H)-dione], which IC50 is on record?
The IC50 was 1 to 100 nM.

`Cn1nc(N2CCC(=O)NC2=O)c2ccc(C3CCN(CC4CCN(c5cccc(S(=O)(=O)N6CCC(Nc7ncc(Cl)cn7)CC6)c5F)CC4)CC3)cc21` [Example 187, 1-(6-(1-((1-(3-((4-((5-chloropyrimidin-2-yl)amino)piperidin-1-yl)sulfonyl)-2-fluorophenyl)piperidin-4-yl)methyl)piperidin-4-yl)-1-methyl-1H-indazol-3-yl)dihydropyrimidine-2,4(1H,3H)-dione] was tested. Which IC50 did it give?
The IC50 was 100 to 500 nM.
